Test results reported in patent US20250011288A1 (BRISTOL-MYERS SQUIBB COMPANY, priority 2021, published 2025).

Target: T1, human RXFP1 (Homo sapiens, UniProt Q9HBX9)
T1 construct: expressed in transfected cells
T1 sequence (Q9HBX9 1-757): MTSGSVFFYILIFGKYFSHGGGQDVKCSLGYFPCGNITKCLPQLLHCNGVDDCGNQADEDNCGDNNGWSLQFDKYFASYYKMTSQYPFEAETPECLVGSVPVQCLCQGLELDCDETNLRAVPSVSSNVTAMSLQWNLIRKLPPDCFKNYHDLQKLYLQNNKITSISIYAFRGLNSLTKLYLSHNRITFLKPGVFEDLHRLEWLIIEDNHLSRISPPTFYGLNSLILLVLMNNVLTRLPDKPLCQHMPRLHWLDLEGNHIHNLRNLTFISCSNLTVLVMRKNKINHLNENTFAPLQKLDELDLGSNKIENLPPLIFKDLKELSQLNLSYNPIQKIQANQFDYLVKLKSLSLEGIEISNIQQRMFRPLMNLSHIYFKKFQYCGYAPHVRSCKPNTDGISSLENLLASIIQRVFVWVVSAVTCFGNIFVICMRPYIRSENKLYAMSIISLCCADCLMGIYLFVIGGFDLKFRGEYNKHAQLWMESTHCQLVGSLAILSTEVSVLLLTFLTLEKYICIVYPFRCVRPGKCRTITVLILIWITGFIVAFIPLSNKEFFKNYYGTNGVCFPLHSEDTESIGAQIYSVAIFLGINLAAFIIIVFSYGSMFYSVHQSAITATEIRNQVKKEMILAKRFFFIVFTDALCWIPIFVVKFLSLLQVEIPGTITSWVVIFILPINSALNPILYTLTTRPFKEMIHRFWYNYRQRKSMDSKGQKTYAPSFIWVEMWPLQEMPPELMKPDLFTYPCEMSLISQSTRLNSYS
Test: human RXFP1 (hRXFP1) HEK293 cAMP assay (HTRF)
Type: cell-based
Details: HEK293 cells stably expressing human RXFP1, 30 min at room temperature
Protocol: RXFP1 Cyclic Adenosine Monophosphate (cAMP) Assays. […] Cells were dissociated and suspended in assay buffer. The assay buffer was HBSS buffer (with calcium and magnesium) containing 20 mM HEPES, 0.05% BSA, and 0.5 mM IBMX. Cells (3000 cells per well, except 1500 cell per well for HEK293 cells stably expressing human RXFP1) were added to 384-well Proxiplates (Perkin-Elmer). Cells were immediately treated with test compounds in DMSO (2% final) at final concentrations in the range of 0.010 nM to 50 µM. Cells were incubated for 30 min at room temperature. The level of intracellular cAMP was determined using the HTRF HiRange cAMP assay reagent kit (Cisbio) according to manufacturer's instructions. Solutions of cryptate conjugated anti-cAMP and d2 fluorophore-labelled cAMP were made in a supplied lysis buffer separately. Upon completion of the reaction, the cells were lysed with equal volume of the d2-cAMP solution and anti-cAMP solution. […] The potency and activity of a compound to […] cAMP production was then determined by fitting to a 4-parametric logistic equation from a plot of cAMP level versus compound concentrations.

`CCC(O)C1CC2ON=C(c3cnc(OC)c(C(=O)N[C@H]4[C@@H](C(=O)Nc5ccc(F)c(C(F)(F)F)c5)[C@H]5CC[C@@H]4/C5=C\C4CC4)c3)C2C1` (stereo partly drawn) [Example 113, N-((1R,2R,3S,4R,Z)-7-(cyclopropyl-methylene)-3-((4-fluoro-3-(trifluoromethyl)phenyl)carbamoyl)bicyclo[2.2.1]heptan-2-yl)-5-(5-(1-hydroxypropyl)-3a,5,6,6a-tetrahydro-4H-cyclopenta[d]isoxazol-3-yl)-2-methoxynicotinamide] and `COc1ncc(C2=NOC3CC(CO)CC23)cc1C(=O)N[C@H]1[C@@H](C(=O)Nc2ccc(F)c(C(F)(F)F)c2)[C@H]2CC[C@@H]1/C2=C\C1CCCC1` (stereo partly drawn) [Example 123, N-((1R,2R,3S,4R,Z)-7-(cyclopentyl-methylene)-3-((4-fluoro-3-(trifluoromethyl)phenyl)carbamoyl)bicyclo[2.2.1]heptan-2-yl)-5-(5-(hydroxymethyl)-3a,5,6,6a-tetrahydro-4H-cyclopenta[d]isoxazol-3-yl)-2-methoxynicotinamide] are within 1.5-fold of each other in EC50: 4.3 nM for the first, 3.1 nM for the second.

Going from `COc1cscc1C(=O)N[C@@H]1C2CCC(C2=C(C)C)[C@@H]1C(=O)Nc1ccc(F)c(C(F)(F)F)c1` (stereo partly drawn) [Example 9, N-[(2R,3S)-3-{[4-fluoro-3-(trifluoromethyl)phenyl]carbamoyl}-7-(propan-2-ylidene)bicyclo [2.2.1]heptan-2-yl]-4-methoxy-thiophene-3-carboxamide] to `COc1ncncc1C(=O)N[C@@H]1C2CCC(C2=C(C)C)[C@@H]1C(=O)Nc1ccc(F)c(C(F)(F)F)c1` (stereo partly drawn) [Example 10, N-[(2R,3S)-3-{[4-fluoro-3-(trifluoromethyl)phenyl]carbamoyl}-7-(propan-2-ylidene)bicyclo [2.2.1]heptan-2-yl]-4-methoxypyrimidine-5-carboxamide], the EC50 rises from 1400 nM to 5000 nM (3.6-fold).

Going from `COc1ncc(C2=NOC3COCC23)cc1C(=O)N[C@H]1[C@@H](C(=O)N[C@H](C)C2(C)CC2)[C@H]2CC[C@@H]1/C2=C\c1csc(C(F)(F)F)n1` (stereo partly drawn) [Example 119, 2-methoxy-N-((1R,2R,3S,4R,Z)-3-(((R)-1-(1-methylcyclopropyl)ethyl)carbamoyl)-7-((2-(trifluoromethyl)thiazol-4-yl)methylene)bicyclo[2.2.1]heptan-2-yl)-5-(3a,4,6,6a-tetrahydrofuro[3,4-d]isoxazol-3-yl)nicotinamide] to `COc1ncc(C2=NOC3CC(C(OC(=O)Nc4ccccc4)C4CC4)CC23)cc1C(=O)N[C@@H]1C2CCC(/C2=C/C2CC(F)(F)C2)[C@@H]1C(=O)Nc1ccc(F)c(C(F)(F)F)c1` (stereo partly drawn) [Example 160, cyclopropyl[3-(5-{[(2R,3S,7Z)-7-1(3,3-difluorocyclobutyl)methylidene]-3-{[4-fluoro-3-(trifluoromethyl)phenyl]carbamoyl}bicyclo[2.2.1]heptan-2-yl]carbamoyl}-6-methoxypyridin-3-yl)-3aH,4H,5H,6H, 6aH-cyclopenta[d][1,2] oxazol-5-yl]methyl N-phenylcarbamate], the EC50 rises from 3.9 nM to 8.4 nM (2.2-fold). The first is the more potent here.

Going from `O=C(N[C@@H]1C2CCC(/C2=C/C(F)(F)F)[C@@H]1C(=O)Nc1ccc(F)c(C(F)(F)F)c1)c1cc(Br)ncc1OCCO` (stereo partly drawn) [Example 45, 2-Bromo-N-[(2R,3S,7Z)-3-{[4-fluoro-3-(trifluoromethyl)phenyl]carbamoyl}-7-(2,2,2-trifluoroethylidene)bicyclo[2. 2.1]heptan-2-yl]-5-(2-hydroxyethoxy) pyridine-4-carboxamide] to `COc1cnc(-c2cc(C(=O)O)ccc2F)cc1C(=O)N[C@@H]1C2CCC(/C2=C/C(F)(F)F)[C@@H]1C(=O)Nc1ccc(F)c(C(F)(F)F)c1` (stereo partly drawn) [Example 30, 4-Fluoro-3-(4-{[(2R,3S,7Z)-3-{[4-fluoro-3-(trifluoromethyl)phenyl]carbamoyl}-7-(2,2,2-trifluorocthylidene)bicyclo[2. 2.1]heptan-2-yl]carbamoyl}-5-methoxypyridin-2-yl)benzoic acid], the EC50 falls from 560 nM to 109 nM (5.1-fold).

Going from `CC(O)C1CC2ON=C(c3cc4c(c(C(=O)N[C@H]5[C@@H](C(=O)Nc6ccc(F)c(C(F)(F)F)c6)[C@H]6CC[C@@H]5/C6=C\C5CC5)c3)OC(C)(C)C4)C2C1` (stereo partly drawn) [Example 175, N-[(1R,2R,3S,4R, 7Z)-7-(cyclopropyl-methylidene)-3-{[4-fluoro-3-(trifluoromethyl)phenyl]carbamoyl}bicyclo[2.2.1]heptan-2-yl]-5-[5-(1-hydroxyethyl)-3aH,4H,5H,6H, 6aH-cyclopenta[d][1,2]oxazol-3-yl]-2,2-dimethyl-2,3-dihydro-1-benzofuran-7-carboxamide] to `CC1(C)Cc2cc(C3=NOC4CC(CO)CC34)cc(C(=O)N[C@@H]3C4CCC(/C4=C/C4CC4)[C@@H]3C(=O)Nc3ccc(F)c(C(F)(F)F)c3)c2O1` (stereo partly shown) [Example 144], the EC50 falls from 7.8 nM to 2 nM (3.9-fold).

Going from `COc1cc2c(cc1C(=O)N[C@H]1[C@@H](C(=O)Nc3ccc(F)c(C(F)(F)F)c3)[C@H]3CC[C@@H]1/C3=C\C1CC1)CN(CCS(C)(=O)=O)CC2` [Example 84, N-((1R,2R,3S,4R,Z)-7-(cyclopropylmethylene)-3-((4-fluoro-3-(trifluoromethyl)phenyl)carbamoyl)bicyclo[2.2.1]heptan-2-yl)-6-methoxy-2-(2-(methylsulfonyl)ethyl)-1,2,3,4-tetrahydroisoquinoline-7-carboxamide] to `COc1cc2c(cc1C(=O)N[C@@H]1C3CCC(/C3=C/C3CC3)[C@@H]1C(=O)Nc1ccc(F)c(C(F)(F)F)c1)CN(CCO)CC2` (stereo partly shown) [Example 94], the EC50 rises from 330 nM to 1200 nM (3.6-fold). The first is the more potent here.

First: COCCN1CCc2cc(C(=O)N[C@@H]3C4CCC(/C4=C/C4CC4)[C@@H]3C(=O)Nc3ccc(F)c(C(F)(F)F)c3)c(OC)cc2C1 (stereo partly shown) [Example 91]
Second: COc1cc2c(cc1C(=O)N[C@H]1[C@@H](C(=O)Nc3ccc(F)c(C(F)(F)F)c3)[C@H]3CC[C@@H]1/C3=C\C1CC1)CNCC2 [Example 83, N-((1R,2R,3S,4R,Z)-7-(cyclopropylmethylene)-3-((4-fluoro-3-(trifluoromethyl)phenyl)carbamoyl)bicyclo[2.2.1]heptan-2-yl)-6-methoxy-1,2,3,4-tetrahydroisoquinoline-7-carboxamide]
The EC50 of the first is 2-fold higher: 4700 nM for the first, 2400 nM for the second.

`O=C(O)c1cccc(C2=NOC(C(=O)N[C@@H]3C4CCC(/C4=C/C(F)(F)F)[C@@H]3C(=O)Nc3ccc(F)c(C(F)(F)F)c3)C2)c1` (stereo partly drawn) [Example 33, 3-(5-{[(2R,3S,7Z)-3-{[4-fluoro-3-(trifluoromethyl)phenyl]carbamoyl}-7-(2,2,2-trifluoroethylidene)bicyclo[2.2.1]heptan-2-yl]carbamoyl}-4,5-dihydro-1,2-oxazol-3-yl)benzoic acid] and `Cn1c(=O)c(C(=O)N[C@@H]2C3CCC(/C3=C/C3CC3)[C@@H]2C(=O)Nc2ccc(F)c(C(F)(F)F)c2)cc2ccccc21` (stereo partly shown) [Example 19] are within 1.5-fold of each other in EC50: 4400 nM for the first, 4000 nM for the second.

Compared with `COc1ncc(C(=O)OC(C)(C)C)cc1C(=O)N[C@H]1[C@@H](C(=O)Nc2ccc(F)c(C(F)(F)F)c2)[C@H]2CC[C@@H]1/C2=C\C1CC1` [Example 78, tert-butyl 5-(((1R,2R,3S,4R,Z)-7-(cyclopropylmethylene)-3-((4-fluoro-3-(trifluoromethyl)phenyl)carbamoyl)bicyclo[2.2.1]heptan-2-yl)carbamoyl)-6-methoxynicotinate], `COc1ncc(-c2cc([C@H](OC(=O)N3CCS(=O)(=O)CC3)C(F)(F)F)ccc2F)cc1C(=O)N[C@@H]1C2CCC(/C2=C/C2CC2)[C@@H]1C(=O)Nc1ccc(F)c(C(F)(F)F)c1` (stereo partly drawn) [Example 187, (1S)-1-[3-(5-{[(2R,3S,7Z)-7-(cyclopropyl-methylidene)-3-{[4-fluoro-3-(trifluoromethyl)phenyl]carbamoyl}bicyclo[2.2.1]heptan-2-yl]carbamoyl}-6-methoxypyridin-3-yl)-4-fluorophenyl]-2,2,2-trifluoroethyl 1,1-dioxo-1λ^6-thiomorpholine-4-carboxylate] is 26-fold lower in EC50: 140 nM for the first, 5.3 nM for the second.

`O=C(Nc1ccccc1)O[C@@H](c1ccc(F)c(-c2cnc(OCCO)c(C(=O)N[C@H]3[C@@H](C(=O)Nc4ccc(F)c(C(F)(F)F)c4)[C@H]4CC[C@@H]3/C4=C\C(F)(F)F)c2)c1)C(F)(F)F` [Example 42, (S)-2,2,2-trifluoro-1-(4-fluoro-3-(5-(((1R,2R,3S,4R,Z)-3-((4-fluoro-3-(trifluoromethyl)phenyl)carbamoyl)-7-(2,2,2-trifluoroethylidene)bicyclo[2.2.1]heptan-2-yl)carbamoyl)-6-(2-hydroxyethoxy)pyridin-3-yl)phenyl)ethyl phenylcarbamate] was tested, and the EC50 was 8.1 nM.
